According to patent publication US20050009894A1 (Aventis Pharma S.A., priority 2001, published 2005):

What follows are compounds tested against T1, human KDR enzyme (Homo sapiens, UniProt P35968) (assay: Phosphorylation of the substrate PLCγ by the enzyme KDR in vitro (flashplate technique)). Conditions: Table VII, degrees of activity by IC50 range; read-out: Activity.
T1 construct: The cytoplasmic domain of human KDR enzyme is cloned in the form of a GST fusion; GST; made in house; host or cells: SF21 insect cells (baculovirus, pFastBac)
Format: biochemical
In short: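 GST-fused human KDR cytoplasmic domain (Sf21 baculovirus, ~60% pure; 100 ng/well) phosphorylating 2 μg GST-PLCγ SH2-SH3 fragment in MOPS pH 7.2 with MgCl2/MnCl2, 1 h at 37° C. Started with γ33P-ATP plus cold ATP (2 μM in start solution); flashplate radioactivity. % inhibition vs no-compound control; IC50 from dose-response curves.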

T1 sequence (P35968 786-1356 limits assumed): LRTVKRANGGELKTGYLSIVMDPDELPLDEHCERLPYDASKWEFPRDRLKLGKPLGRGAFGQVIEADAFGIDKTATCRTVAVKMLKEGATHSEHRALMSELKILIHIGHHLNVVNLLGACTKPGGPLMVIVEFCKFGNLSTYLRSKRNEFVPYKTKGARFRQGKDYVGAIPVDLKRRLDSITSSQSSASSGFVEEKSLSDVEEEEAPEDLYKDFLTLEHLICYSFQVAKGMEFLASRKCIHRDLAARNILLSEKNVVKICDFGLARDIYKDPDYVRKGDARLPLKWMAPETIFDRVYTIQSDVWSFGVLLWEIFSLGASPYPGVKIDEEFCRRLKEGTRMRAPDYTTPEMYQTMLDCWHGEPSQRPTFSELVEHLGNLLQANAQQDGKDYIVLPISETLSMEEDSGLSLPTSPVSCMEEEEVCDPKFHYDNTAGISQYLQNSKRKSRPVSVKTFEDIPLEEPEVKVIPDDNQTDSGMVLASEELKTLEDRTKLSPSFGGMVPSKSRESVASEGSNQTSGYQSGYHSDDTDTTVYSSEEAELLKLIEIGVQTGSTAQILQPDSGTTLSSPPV

| SMILES | IC50 |
| --- | --- |
| O=S(=O)(Oc1cc(-c2nc3ccccc3[nH]2)[nH]n1)c1cccc(Cl)c1Cl [Example 194, 2,3-Dichloro-benzenesulfonic acid 5-(1H-benzoimidazol-2-yl)-1H-pyrazol-3-yl ester] | > 3 µM |
| c1ccc2[nH]c(-c3cc(OCCN4CCOCC4)n[nH]3)nc2c1 [Example 195, 2-[5-(2-Morpholin-4-yl-ethoxy)-2H-pyrazol-3-yl]-1H-benzoimidazole] | > 3 µM |
| c1ccc2[nH]c(-c3cc(OCCN4CCCCC4)n[nH]3)nc2c1 [Example 196, 2-[5-(2-Piperidin-1-yl-ethoxy)-2H-pyrazol-3-yl]-1H-benzoimidazole] | > 3 µM |
| Cc1ccc(C(=O)COc2cc(-c3nc4ccccc4[nH]3)[nH]n2)cc1 [Example 198, 2-[5-(1H-Benzoimidazol-2-yl)-1H-pyrazol-3-yloxy]-1-p-tolyl-ethanone] | > 3 µM |
| O=C(COc1cc(-c2nc3ccccc3[nH]2)[nH]n1)C(F)(F)C(F)(F)F [Example 199, 1-[5-(1H-Benzoimidazol-2-yl)-1H-pyrazol-3-yloxy]-3,3,4,4,4-pentafluoro-butan-2-one] | > 3 µM |
| O=C(COc1cc(-c2nc3ccccc3[nH]2)[nH]n1)c1ccc(-c2ccccc2)cc1 [Example 200, 2-[5-(1H-Benzoimidazol-2-yl)-1H-pyrazol-3-yloxy]-1-biphenyl-4-yl-ethanone] | > 3 µM |
| CCC(=O)COc1cc(-c2nc3ccccc3[nH]2)[nH]n1 [Example 201, 1-[5-(1H-Benzoimidazol-2-yl)-1H-pyrazol-3-yloxy]-butan-2-one] | > 3 µM |
| CN(C)c1ccc(C(=O)COc2cc(-c3nc4ccccc4[nH]3)[nH]n2)cc1 [Example 202, 2-[5-(1H-Benzoimidazol-2-yl)-1H-pyrazol-3-yloxy]-1-(4-dimethylamino-phenyl)-ethanone] | > 3 µM |
| O=C(COc1cc(-c2nc3ccccc3[nH]2)[nH]n1)c1cc(-c2ccccc2)no1 [Example 203, 2-[5-(1H-Benzoimidazol-2-yl)-1H-pyrazol-3-yloxy]-1-(3-phenyl-isoxazol-5-yl)-ethanone] | > 3 µM |
| O=C(COc1cc(-c2nc3ccccc3[nH]2)[nH]n1)Nc1ccccc1 [Example 204, 2-[5-(1H-Benzoimidazol-2-yl)-1H-pyrazol-3-yloxy]-N-phenyl-acetamide] | > 3 µM |
| CC(C)(C)C(=O)COc1cc(-c2nc3ccccc3[nH]2)[nH]n1 [Example 205, 1-[5-(1H-Benzoimidazol-2-yl)-1H-pyrazol-3-yloxy]-3,3-dimethyl-butan-2-one] | > 3 µM |
| O=C(COc1cc(-c2nc3ccccc3[nH]2)[nH]n1)C12C[C@H]3C[C@@H](C1)C[C@@H](C2)C3 [Example 206, 1-Adamantan-1-vl-2-[5-(1H-benzoimidazol-2-yl)-1H-pyrazol-3-yloxy]-ethanone] | > 3 µM |
| O=C(COc1cc(-c2nc3ccccc3[nH]2)[nH]n1)c1ccc2ccccc2c1 [Example 207, 2-[5-(1H-Benzoimidazol-2-yl)-1H-pyrazol-3-yloxy]-1-naphthalen-2-yl-ethanone] | > 3 µM |
| N#Cc1ccc(C(=O)COc2cc(-c3nc4ccccc4[nH]3)[nH]n2)cc1 [Example 208, 4-{2-[5-(1H-Benzoimi-dazol-2-Yl)-1H-pyrazol-3-yloxy)acetyl}-benzonitrile] | > 3 µM |
| O=C1CCc2cc(C(=O)COc3cc(-c4nc5ccccc5[nH]4)[nH]n3)ccc2N1 [Example 209, 6-{2-[5-(1H-Benzoimi-dazol-2-yl)-1H-pyrazol-3-yloxy]-acetyl}-3,4-dihydro-1H-quinolin-2-one] | > 3 µM |
| O=C(COc1cc(-c2nc3ccccc3[nH]2)[nH]n1)c1ccc(OC(F)(F)F)cc1 [Example 210, 2-[5-(1H-Benzoimidazol-2-yl)-1H-pyrazol-3-yloxy]-1-(4-trifluoromethoxy-phenyl)-ethanone] | > 3 µM |
| NS(=O)(=O)c1cc(C(=O)COc2cc(-c3nc4ccccc4[nH]3)[nH]n2)ccc1Cl [Example 211, 5-{2-[5-(1H-Benzoimida-zol-2-yl)-1H-pyrazol-3-yloxy]-acetyl}-2-chloro-benzenesulfonamide] | > 3 µM |
| COc1ccc(C(=O)COc2cc(-c3nc4ccccc4[nH]3)[nH]n2)cc1 [Example 212, 2-[5-(1H-Benzoimidazol-2-yl)-1H-pyrazol-3-yloxy]-1-(4-methoxy-phenyl)-ethanone] | > 3 µM |
| O=C(COc1cc(-c2nc3ccccc3[nH]2)[nH]n1)C1CC1 [Example 213, 2-[5-(1H-Benzoimidazol-2-yl)-1H-pyrazol-3-yloxy]-1-cyclopropyl-ethanone] | > 3 µM |

The remaining lines, values ahead:

| IC50 | SMILES |
| --- | --- |
| 0.3 to 3 µM | O=C(NCCCn1ccnc1)c1ccc2[nH]c(-c3n[nH]c4ccccc34)nc2c1 [Example 174, 2-(1H-Indazol-3-yl)-1H-benzoimidazole-5-carboxylic acid (3-imidazol-1-yl-propyl)-amide] |
| 0.3 to 3 µM | CC(C)(C)OC(=O)N1CCN(C(=O)c2ccc3[nH]c(-c4n[nH]c5ccccc45)nc3c2)CC1 [Example 175, 4-[2-(1H-Indazol-3-yl)-1H-benzoimidazole-5-carbonyl]-piperazine-1-carboxylic acid tert-butyl ester] |
| < 0.3 µM | O=C(NCc1c(F)cc(Cl)cc1F)c1ccc2[nH]c(-c3n[nH]c4ccccc34)nc2c1 [Example 176, 2-(1H-Indazol-3-yl)-1H-benzoimidazole-5-carboxylic acid (2,6-difluoro-4-chloro-benzyl)amide] |
| < 0.3 µM | O=C(NCc1c(F)cc(Cl)cc1Cl)c1ccc2[nH]c(-c3n[nH]c4ccccc34)nc2c1 [Example 177, 2-(1H-Indazol-3-yl)-1H-benzoimidazole-5-carboxylic acid (2,4-dichloro-6-fluoro-benzyl)amide] |
| < 0.3 µM | O=C(NCc1ccc(Cl)c(F)c1)c1ccc2[nH]c(-c3n[nH]c4ccccc34)nc2c1 [Example 178, 2-(1H-Indazol-3-yl)-1H-benzoimidazole-5-carboxylic acid (3-fluoro-4-chloro-benzyl)amide] |
| < 0.3 µM | Cc1cc(Cl)cc(F)c1CNC(=O)c1ccc2[nH]c(-c3n[nH]c4ccccc34)nc2c1 [Example 179, 2-(1H-Indazol-3-yl)-1H-benzoimidazole-5-carboxylic acid (2-fluoro-4-chloro-6-methyl-benzyl)amide] |
| < 0.3 µM | COc1ccc(CNC(=O)c2ccc3[nH]c(-c4n[nH]c5ccccc45)nc3c2)cn1 [Example 180, 2-(1H-Indazol-3-yl)-1H-benzoimidazole-5-carboxylic acid (6-methoxy-pyridin-3-ylmethyl)-amide] |
| 0.3 to 3 µM | c1ccc(COc2cc(-c3nc4ccccc4[nH]3)[nH]n2)cc1 [Example 181, 2-[5-(benzyloxy)-2H-pyrazol-3-yl]-1H-benzoimidazole] |
| 0.3 to 3 µM | C(=C\c1ccccc1)/COc1cc(-c2nc3ccccc3[nH]2)[nH]n1 [Example 182, 2-[5-(3-Phenyl-allyloxy)-2H-pyrazol-3-yl]-1H-benzoimidazole] |
| > 3 µM | C=C(C)COc1cc(-c2nc3ccccc3[nH]2)[nH]n1 [Example 183, 2-[5-(2-Methyl-allyloxy)-2H-pyrazol-3-yl]-1H-benzoimidazole] |
| 0.3 to 3 µM | CC(C)=CCC/C(C)=C/COc1cc(-c2nc3ccccc3[nH]2)[nH]n1 [Example 184, 2-[5-(3,7-Dimethyl-octa-2,6-dienyloxy)-2H-pyrazol-3-yl]-1H-benzoimidazole] |
| 0.3 to 3 µM | Brc1cccc(COc2cc(-c3nc4ccccc4[nH]3)[nH]n2)c1 [Example 185, 2-[5-(3-Bromo-benzyloxy)-2H-pyrazol-3-yl]-1H-benzoimidazole] |
| > 3 µM | N#Cc1cccc(COc2cc(-c3nc4ccccc4[nH]3)[nH]n2)c1 [Example 186, 3-[5-(1H-Benzoimidazol-2-yl)-1H-pyrazol-3-yloxymethyl]-benzonitrile] |
| > 3 µM | FC(F)(F)c1ccc(COc2cc(-c3nc4ccccc4[nH]3)[nH]n2)cc1 [Example 187, 2-[5-(4-Trifluoromethyl-benzyloxy)-2H-pyrazol-3-yl]-1H-benzoimidazole] |
| 0.3 to 3 µM | Clc1ccc(COc2cc(-c3nc4ccccc4[nH]3)[nH]n2)cc1Cl [Example 188, 2-[5-(3,4-Dichloro-benzyloxy)-2H-pyrazol-3-yl]-1H-benzoimidazole] |
| > 3 µM | Fc1c(F)c(F)c(COc2cc(-c3nc4ccccc4[nH]3)[nH]n2)c(F)c1F [Example 189, 2-(5-Pentafluoro-phenylmethoxy-2H-pyrazol-3-yl)-1H-benzoimidazole] |
| > 3 µM | CC(C)(C)c1ccc(COc2cc(-c3nc4ccccc4[nH]3)[nH]n2)cc1 [Example 190, 2-[5-(4-tert-Butyl-benzyloxy)-2H-pyrazol-3-yl]-1H-benzoimidazole] |
| 0.3 to 3 µM | O=S(=O)(Cc1ccccc1COc1cc(-c2nc3ccccc3[nH]2)[nH]n1)c1ccccc1 [Example 191, 2-[5-(2-Benzenesulfonylmethylbenzyloxy)-2H-pyrazol-3-yl]-1H-benzoimidazole] |
| > 3 µM | N#Cc1ccc(COc2cc(-c3nc4ccccc4[nH]3)[nH]n2)cc1 [Example 192, 4-[5-(1H-Benzoimidazol-2-yl)-1H-pyrazol-3-yloxymethyl]-benzonitrile] |
| 0.3 to 3 µM | c1ccc(-c2ccc(COc3cc(-c4nc5ccccc5[nH]4)[nH]n3)cc2)cc1 [Example 193, 2-[5-(Biphenyl-4-ylmethoxy)-2H-pyrazol-3-yl]-1H-benzoimidazole] |
| 0.3 to 3 µM | COc1cccc(COc2cc(-c3nc4ccccc4[nH]3)[nH]n2)c1 [Example 197, 2-[5-(3-Methoxy-benzyloxy)-2H-pyrazol-3-yl]-1H-benzoimidazole] |
| 0.3 to 3 µM | O=C(Oc1cc(-c2nc3ccccc3[nH]2)[nH]n1)c1ccncc1 [Example 214, Isonicotinic acid 5-(1H-benzoimidazol-2-yl)-1H-pyrazol-3-yl ester] |
